From EP3058958B1, “ANIDULAFUNGIN COMPOSITION” (Selectchemie AG, priority 2015, dated 2016)
Numbered stars: 1 amine (or outer) side, 2 acyl side, 3 side chain; on linkers, the order of the positions; unused ones are H or OH. Bridge positions count the residues as written; N and C are the ends. Square brackets hold non-standard residues; d marks the D form. Peptide text beside a SMILES is read from it. * marks the point of attachment. pTerphenylCO(4''-OnC5H11) = CCCCCOc1ccc(-c2ccc(-c3ccc(C(=O)*)cc3)cc2)cc1; Orn(4R-OH,5R-OH) = O=C([C@H](C[C@@H](O)[C@@H](O)N[*:3])N[*:1])[*:2]; hTyr(3S-OH,4S-OH) = N[C@H](C(=O)O)[C@H](O)[C@@H](O)c1ccc(O)cc1; Pro(3S-OH,4S-Me) = C[C@H]1CN[C@H](C(=O)O)[C@H]1O; Hyp = O=C(O)[C@@H]1C[C@@H](O)CN1

Test: Dissolution of anidulafungin powder in the polysorbate 80 solution
Type: physicochemical
Method: Next the active ingredient is added. […] Even in small scale experiments the dissolution needs more than 4 hours. The dissolution can be accelerated by a pre-treatment of the active ingredient, preferably by dispersing the active ingredient in a pharmaceutically acceptable solvent, preferably in WFI, e.g. in an ultrasonic bath, and using this dispersion in step (b).
Dissolve the pre-weighed amount of polysorbate 80 in about 75% of total amount of WFI, rinse weighing container with 100 ml of WFI into reactor; stir not less than 20 min until excipient completely dissolves with a mechanical stirrer at a speed of 150-190 rpm.
Add about 7% of total amount of WFI to the pre-weighed amount of the active pharmaceutical ingredient (API) anidulafungin in glass bottle, screw the cap, shake bottle well in order to promote wetting of API and transfer it into ultrasonic bath for homogenisation. Take not less than 3 cycles of homogenisation for 10 min. Slightly shake the bottle after each cycle, in order to rinse API particles from the walls of the bottle's upper part into suspension. After white, well-homogenized suspension is obtained, transfer it into intermediate product preparation reactor, stir with a mechanical stirrer at a speed of 150-190 rpm until substance dissolves completely.
100% of the particles were below 750 µm. Particle sizes were analysed by laser diffraction with dry dispersion using a Malvern Mastersizer 3000 instrument. The size distribution was determined from the light scattering data using the theory of light scattering developed by Gustav Mie. […] It remained an undissolved residue of about 5% which corresponds to particles with more than about 400 µm. About 9-10% of the particles were bigger than 350 µm.
In a second experiment an aliquot of the anidulafungin powder was sieved through a 50 mesh sieve, corresponding to a mesh width of 297 µm to remove the bigger particles.

SMILES | dissolution in the polysorbate 80 solution (powder sieved through a 50 mesh sieve (297 µm), mechanical stirrer) | dissolution in the polysorbate 80 solution (after treatment of the powder in an ultrasonic bath) | time needed for dissolution (particles with a particle size of more than 400 µm, small scale experiments, solubilizing agent added) | undissolved residue (polysorbate 80 solution, vigorous stirring for 4 h, powder D90 339 µm) | dissolution in the polysorbate 80 solution (vigorous stirring for 4 h, powder D90 339 µm, unsieved)
CCCCCOc1ccc(-c2ccc(-c3ccc(C(=O)N[C@H]4C[C@@H](O)[C@@H](O)NC(=O)[C@@H]5[C@@H](O)[C@@H](C)CN5C(=O)[C@H]([C@@H](C)O)NC(=O)[C@H]([C@H](O)[C@@H](O)c5ccc(O)cc5)NC(=O)[C@@H]5C[C@@H](O)CN5C(=O)[C@H]([C@@H](C)O)NC4=O)cc3)cc2)cc1 [sieved powder, anidulafungin] ({pTerphenylCO(4''-OnC5H11)}-[Orn(4R-OH,5R-OH)]T[Hyp][hTyr(3S-OH,4S-OH)]T[Pro(3S-OH,4S-Me)]; lactam 1-C) | could be dissolved easily |  |  |  | 
CCCCCOc1ccc(-c2ccc(-c3ccc(C(=O)N[C@H]4C[C@@H](O)[C@@H](O)NC(=O)[C@@H]5[C@@H](O)[C@@H](C)CN5C(=O)[C@H]([C@@H](C)O)NC(=O)[C@H]([C@H](O)[C@@H](O)c5ccc(O)cc5)NC(=O)[C@@H]5C[C@@H](O)CN5C(=O)[C@H]([C@@H](C)O)NC4=O)cc3)cc2)cc1 [anidulafungin powder, anidulafungin] ({pTerphenylCO(4''-OnC5H11)}-[Orn(4R-OH,5R-OH)]T[Hyp][hTyr(3S-OH,4S-OH)]T[Pro(3S-OH,4S-Me)]; lactam 1-C) |  | complete dissolution could be achieved | more than 4 hours | about 5% | could not be dissolved completely
